Results taken from patent US8562586B2, “Devices and systems for local delivery of inotropic agents to the epicardium” (Massachusetts Institute of Technology, priority 2008, dated 2013).
Each block holds one molecule with its values, some of them ahead of it.

Experiments:
[1] = intravenous infusion systems; cited from earlier work
[2] = Plasma dobutamine levels in arterial blood samples of swine; assay type: in vivo; details: FIG. 10
Source text: Arterial blood samples were taken for measurement of plasma dobutamine levels.

Sprague Dawley rat = experiment: Hemodynamic and contractile indices in anesthetized rat, epicardial alginate patch vs IV infusion; assay type: in vivo; details: for systemic vascular resistance: FIG. 5
Procedure: A Sprague Dawley rat was anesthetized with pentobarbital and catheters were placed in the right internal jugular vein and right femoral artery for continuous pressure measurement and IV access. An arteriotomy in the right carotid artery allowed passage of a Millar (Houston, Tex.) conductance pressure-volume catheter across the aortic valve and into the left ventricle. This catheter allows measurement of indices of myocardial contractile function. A tracheotomy was performed and the animal ventilated prior to sternotomy and chest retraction.
A pericardial drug releasing platform was made from a calcium crosslinked alginate disk (6.5 mm diameter) and placed on top of the left ventricle. Dobutamine was then applied to the drug release platform for pericardial inotropic treatments. […]

[3] = Drug levels within the myocardium, tissue core from under the device, swine; assay type: in vivo; details: patch release compared with IV infusion at the same dosage, all tissue depths, FIG. 11
Source text: The heart was arrested with a large potassium IV bolus and removed. A core of tissue from under the device was taken for measurement of drug levels within the myocardium.

Hannaford swine = experiment: Hemodynamic measurements in anesthetized swine, epicardial patch vs pericardial catheter vs IV; assay type: in vivo
Procedure: Hannaford swine (15-25 weeks old, 45-60 kg) were fasted overnight but given full access to water. Telazol (2 mg/kg IM at a ratio of zolazepam:tiletamine of 1:1) was given IM for sedation. Anesthesia was induced with inhaled isoflurane 2% prior to tracheal intubation (9.0 cuffed). A 22 gauge peripheral IV was inserted into an ear vein for drug administration and volume resuscitation (Ringer's lactate 4 ml/kg/hr). Anesthesia was maintained during surgical preparation with isoflurane 2% in oxygen. Respiratory rate was be fixed to 10 breaths per minute and the tidal volume adjusted between 6 and 10 ml/kg to maintain expired end-tidal carbon dioxide between 35 and 40 mmHg. Inhaled isoflurane was discontinued after surgical preparation, and balanced total intravenous anesthesia was initiated with pentobarbital (10 mg/kg/hr) and pancuronium (0.5 mcg/kg/hr) prior to experimentation.
Vascular access introducer sheaths (7 FR) were placed in a femoral vein, the right internal jugular vein and both femoral arteries using a Seldinger technique under ultrasound guidance. A balloon tipped pulmonary artery catheter was inserted through the right internal jugular venous sheath and into the pulmonary artery to allow measurement of central venous pressure (CVP), pulmonary artery pressures, and thermodilution cardiac output. Heparin 5000 units was given to keep activated clotting time above 250 seconds. A pig-tail Millar conductance catheter was advanced retrograde across the aortic valve from the right femoral arterial sheath, and allows instantaneous recordings of the pressure and volume within the left ventricle. Following midline sternotomy the pericardium was retracted. Excess Ringer's lactate solution was given to replace blood losses and maintain CVP greater than 8 mm Hg. Continuous hemodynamic measurements were taken including heart rate (HR), mean arterial pressure (MAP), central venous pressure (CVP), contractility (max dP/dt), systemic vascular resistance (SVR), stroke volume (SV), cardiac output (CO) and stroke work (SW).
A pericardial drug releasing platform was constructed from 2 calcium crosslinked alginate disks which were sealed around the edges with GluStitch and formed a bladder for pericardial drug. A catheter was placed into the bladder formed by the two disks and allowed continuous infusion of inotropic drug into the pericardial fluid. This device spread drug over the surface of the heart at a controllable rate of delivery. In another experiment, dobutamine was introduced into the pericardial sac through a catheter without the use of the patch.
In yet another experiment, dobutamine was introduced intravenously.

[4] = patch delivery, PV loop, FIG. 4
[5] = patch release 1 mcg/kg/min compared with IV infusion at the same dosage, FIG. 3
[6] = patch release compared with intravenous infusion, FIG. 6

Compound: C[C@@H]1CC(=O)NN=C1c1ccc(NN=C(C#N)C#N)cc1 [levosimendan]
- dosage typically required for therapeutic effect on contractility [1]: ≥ 0.1 µg/kg/min

- plasma concentration ([2]; intravenous infusion compared with patch release): substantially higher
- plasma drug levels ([2]; pericardial (patch) delivery compared with IV delivery): lower
- systemic vascular resistance (Sprague Dawley rat; intravenous infusion 1 mcg/kg/min): excessively decreases
- systemic vascular resistance (Sprague Dawley rat; patch release 1 mcg/kg/min): only minimal effect
- myocardial dobutamine concentration [3]: orders of magnitude higher
- systemic vascular resistance (Hannaford swine; patch release, FIG. 8): without significantly reducing
Compound: CC(CCc1ccc(O)cc1)NCCc1ccc(O)c(O)c1 (centres unmarked) [dobutamine]
- dosage typically required for therapeutic effect on contractility [1]: at least 2 mcg/kg/min
- cardiac work efficiency (Sprague Dawley rat; patch 1 mcg/kg/min compared with IV infusion at the same dosage, FIG. 4): more efficient cardiac work
- ventricular stroke volume (Sprague Dawley rat; patch 1 mcg/kg/min compared with IV infusion at the same dosage, pressure volume loops, FIG. 4): greater ventricular stroke volume
- LV pressure during ejection (Sprague Dawley rat; [4]): no increase
- diastolic filling (Sprague Dawley rat; [4]): minimal change
- end-systolic volume (Sprague Dawley rat; [4]): marked reduction
- myocardial stroke work (SW) (Sprague Dawley rat; patch delivery, area inside PV loop, FIG. 4): minimal increase
- contractility of myocardial tissue (max dP/dt) (Sprague Dawley rat; [5]): greater increase in contractility
- duration of the increase in contractility (Sprague Dawley rat; [5]): sustained for a longer period of time
- increase in contractility relative to dose (Sprague Dawley rat; [6]): larger increase in contractility with a smaller dose
- potency and effect on contractility (Sprague Dawley rat; [6]): more potent and efficacious
- time response of increasing contractility (Hannaford swine; after pericardial application, FIG. 8): very rapid
- stroke work per stroke volume (Hannaford swine; patch 0.5 mcg/kg/min compared with IV infusion at the same dosage, FIG. 9): less
- myocardial contractility, dose response (Hannaford swine; patch release compared with release via catheter in the pericardial sac, FIG. 7): greater increase
- cardiac output (Hannaford swine; patch release, FIG. 8): increased
- contractility (Hannaford swine; patch release, FIG. 8): increased
